Data reported in US12611431B2, “Approach to sustained production and delivery of nitric oxide and S-nitrosothiols” (Albert Einstein College of Medicine, priority 2020, dated 2026).

What was measured:
[1] = NO release rate measured with a Sievers 280i nitric oxide analyzer; assay type: physicochemical
Procedure: NO release rates were measured using a Sievers 280i nitric oxide analyzer (GE Instruments, Boulder, CO). Samples were dispersed in 5 mL tryptic soy broth (TSB) or MH 14% w/v in TSB at room temperature. Release kinetics were analyzed using Sievers NOAnalysis software (GE Instruments) with 12 measurements per minute recorded for 280 total minutes.

[2] = test system: Pseudomonas aeruginosa planktonic isolates (PA1 strain); test: Colony forming unit (CFU) assay, titration of nitrite dose with MH; assay type: cell-based; conditions: PA1, 6 hours at 37° C.; MH or nitrite (10 mM) alone
Procedure: An overnight-grown culture of the PA1 strain in TSB was diluted to 10^8 cells/mL based on McFarland equivalence turbidity standard No. 0.5 (Thermo Fisher Scientific) and then adjusted to 10^5 cells/mL in TSB. Suspensions were treated with MH, nitrite, and serial dilutions of nitrite from 10 mM to 1 μM combined with MH. Untreated bacteria were used as negative controls. Bacterial suspensions were mixed using a tube rotator to ensure uniform distribution of bacteria and then incubated at 37° C. for 6 hours. Suspensions were then diluted in PBS and plated on TSA. Bacterial viability was determined by counting the number of colonies established on an agar plate after overnight incubation at 37° C.

[3] = test system: Pseudomonas aeruginosa biofilm, ATCC 15692 strain; test: Biofilm viability and volume by live/dead staining and CLSM, ATCC 15692 strain; conditions: ATCC 15692 biofilm, 6 hours; MH 14% w/v, nitrite 10 mM, SNO-MP/B-MP 10 mg/mL
Procedure: (§1) A culture of PA, grown overnight in TSB, was diluted to 10^8 cells/mL. The bacterial suspension was then adjusted to 10^5 cells/mL in TSB and inoculated into an 8 well LabTek II Chambered #15 Coverglass System (Thermo Fisher Scientific). The chamber system was incubated at 37° C. for 48 hours. The media was replenished after 24 hours to maintain bacterial viability.
(§2) Established biofilms were divided into four treatment groups: 1) negative control with untreated bacterial suspension, 2) MH, 3) nitrite (10 mM), and 4) MH administered with nitrite (10 mM). Bacteria were treated with the appropriate treatment solution, as above, for 6 hours under complete darkness at 37° C. followed by washing with PBS. Staining was performed using the BacLight LIVE/DEAD Bacterial Viability kit (Invitrogen, Carlsbad, CA). The LIVE/DEAD kit solution constituting Syto9 and propidium iodide was then applied to each well of the chamber slide system for 1 hour at room temperature in darkness. After incubation, each sample was rinsed with PBS and incubated in 10% buffered formalin for 20 minutes at room temperature in darkness. […]
(§3) Images of biofilms were taken using a TCS SP5 CLSM (Leica Microsystems, Wetzlar, Germany) configured to a 488-nm argon laser with a 63× objective. […] Volocity software (PerkinElmer, Waltham, MA) was used to quantify biofilm viability and biomass in each Z-stack.

[4] = test system: Pseudomonas aeruginosa biofilm, PA1 strain; test: Biofilm viability and volume by live/dead staining and CLSM, PA1 strain; assay type: cell-based; conditions: 6 hours, MH 14% w/v, nitrite 10 mM
Procedure: as §1, §2, §3

[5] = over 280 minutes, nitrite 5 mM, MH 14% w/v, SNO-MP and blank-MP 5 mg/mL, TSB, room temperature

O=NO [nitrite, sodium nitrite]
NO release curve, key points in words (FIG. 1) ([1]; 280 minutes, neutral pH, nitrite 5 mM, MH 14% w/v, SNO-MP 5 mg/mL): no NO production
NO detected ([1]; nitrite 5 mM in tryptic soy broth, room temperature): less than 0.1 ppm
NO release, mean [1, 5]: 0.004±0.001 ppm
NO release, range [1, 5]: 0.003-0.009 ppm
reduction in CFU versus controls [2]: did not have a significant effect
reduction in live cells (cell viability) relative to control [3]: did not significantly reduce
reduction in biofilm volume relative to control ([4]; SNO-MP 10 mg/mL): 43.9%
reduction in live cells (cell viability) relative to control ([4]; SNO-MP/B-MP 10 mg/mL): did not significantly reduce
